The results in this text go back to EP4810492A1, “NMT INHIBITOR, PREPARATION METHOD THEREFOR, AND USE THEREOF” (Nanjing Synnocare Pharmaceutical Technology Co., Ltd., priority 2023, dated 2025).

The term IC50 denotes the point on the concentration scale where inhibition reaches its midpoint.

Where two headings read alike, the source gives them in different places. Bounds are passed on as bounds.

One series has as its system MV-4-11 cells. Kind of series: Anti-proliferative activity against MV-4-11 cells (cell viability chemiluminescence). It is filed as cell-based. To be noted: MV4-11, 72 h, MV-4-11 human monocytic leukemia cells, three days of exposure. The method, then:
This study utilized a cell proliferation assay to analyze the cytotoxicity of MV-4-11 human monocytic leukemia cells after three days of exposure to NMT1 inhibitors. The MV-4-11 cell line was purchased from Nanjing Cobuilder Biotechnology Co., Ltd., and cultured in IMDM medium (Viva cell) in an incubator (Thermo) at 37 °C with 5% CO2. In this experiment, NMT1 inhibitors were dissolved in DMSO to obtain 600 µM stock solutions. Dose-response solutions were prepared with a top endpoint compound concentration of 3 µM, followed by three-fold serial dilutions in DMSO, totaling eight data points. The final concentration of DMSO was 0.5%.
MV-4-11 cells were seeded into a white 96-well plate, 80 µL of cell suspension per well, containing 6000 MV-4-11 cells. The cell plate was placed in the CO2 incubator for overnight culture. Then, 20 µL of NMT1 inhibitor solutions at different concentrations were added to the wells. The 96-well plate was placed back into the incubator for three days. Another cell plate was prepared, and the signal was read on the day of drug addition to serve as the maximum value (Max value in the equation below) for data analysis. To this cell plate, 25 µL of cell viability chemiluminescence detection reagent was added per well, followed by incubation at room temperature for 10 minutes to stabilize the luminescence signal. A multi-label analyzer was used for reading.
The raw data were converted into inhibition rates using the equation (Sample - Min) / (Max - Min) * 100%. The IC50 values were then determined by fitting a four-parameter curve (using the "log(inhibitor) vs. response - Variable slope" model in GraphPad Prism). Min: wells treated with 0.5% DMSO; Max: Day 0 wells. Table 1 provides the inhibitory activity of the compounds of the invention on MV-4-11 cell proliferation. Table 1: Compound Inhibitory Activity against NMT1 Enzyme (IC50) and Anti-proliferative Activity against MV-4-11 Cell line (IC50)

A short description of series [1]: Plasma concentrations in mice following oral administration. As to conditions: for concentration at 1 h / concentration at 4 h / concentration at 8 h: ICR, mouse, po, 10 mg/kg.
From the text: (§4) This study evaluated the plasma concentrations of the compounds of the present invention in mice. ICR mice were procured from JOINN Laboratories (Suzhou) Co., Ltd. At the initiation of dosing, the animals were 6-8 weeks old and weighed 18-25 g. Mice were housed in transparent plastic cages (400 mm*240 mm*200 mm). The animal facility maintained a 12-hour light/12-hour dark cycle (lights on 07:00-19:00) using fluorescent lighting. The dark period may be intermittently interrupted as required for study-related activities. Ambient temperature and relative humidity were controlled within 20-26 °C and 40-70%, respectively. Animals were fed certified rodent chow and provided with drinking water filtered and sterilized through an ultrapure water system. All animals had ad libitum access to water throughout the study. Animals were fasted for at least 12 hours prior to dosing, and food was restored 4 hours post-dosing.
(§5) Prior to dosing, body weights were recorded, and healthy animals with similar weights were selected and randomly assigned to groups (n = 3 per group) based on body weight. The compounds were formulated in a 0.5% aqueous carboxymethyl cellulose (CMC) solution and administered orally at a single dose of 10 mg/kg. Blood samples (≥0.2 mL) were collected via venipuncture at 1 h and 4 h post-dose into EDTA-K2 anticoagulant tubes. Tubes were gently inverted to mix, immediately placed in an ice-water bath, and rapidly centrifuged at 4,000 rpm for 10 min at 4 °C to separate plasma. Plasma was stored at -70 °C until analysis.
(§6) Calibration curve and QC plasma samples: Working solutions for the calibration curve and QC samples were prepared using 80% methanol in water (Thermo Fisher) as the diluent. To prepare plasma calibration standards and QC samples, 5 µL of each working solution was added to 45 µL of blank plasma and mixed. To the prepared calibration and QC samples, 300 µL of internal standard solution (tolbutamide at 8 µg/mL in acetonitrile, Thermo Fisher) was added. […] The supernatant was collected and analyzed by liquid chromatography-tandem mass spectrometry (LC-MS/MS; AB Sciex API 5000).
(§7) Plasma sample pretreatment: After thawing at room temperature, 50 µL of each plasma sample was mixed with 300 µL of the internal standard solution (tolbutamide at 8 µg/mL in acetonitrile, Thermo Fisher). […] The supernatant was collected and analyzed by LC-MS/MS (AB Sciex API 5000).
(§8) Raw chromatograms, concentrations, and accuracy data were generated using Analyst software version 1.6.3.
For another series, the target named is T1, NMT1 enzyme (Homo sapiens, UniProt P30419).
T1 sequence (P30419 1-496): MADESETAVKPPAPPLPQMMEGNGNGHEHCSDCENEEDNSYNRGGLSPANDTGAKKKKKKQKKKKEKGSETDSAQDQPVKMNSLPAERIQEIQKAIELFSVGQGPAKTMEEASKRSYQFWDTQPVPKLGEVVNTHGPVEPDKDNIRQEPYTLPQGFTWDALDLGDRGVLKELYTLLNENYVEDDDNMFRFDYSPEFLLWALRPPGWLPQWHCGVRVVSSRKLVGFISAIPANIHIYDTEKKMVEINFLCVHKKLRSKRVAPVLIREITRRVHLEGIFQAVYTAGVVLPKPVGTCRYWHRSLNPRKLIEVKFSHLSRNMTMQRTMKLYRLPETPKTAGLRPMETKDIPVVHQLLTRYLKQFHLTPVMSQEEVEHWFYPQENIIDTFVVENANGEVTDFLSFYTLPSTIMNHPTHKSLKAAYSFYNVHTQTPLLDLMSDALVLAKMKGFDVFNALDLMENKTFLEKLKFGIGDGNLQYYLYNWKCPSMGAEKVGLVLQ
Kind of series: Inhibitory activity on NMT1 enzyme catalysis (fluorescence intensity assay). In kind it is biochemical. Here is the method: This study evaluated the ability of the compounds of the invention to inhibit NMT1 catalytic activity in vitro. […] The final concentration of the NMT1 enzyme was 6 nM, the final concentration of CPM (Reactive thiol fluorescence probe, Invitrogen, D346) was 1 µM, the final concentration of HSPP60 SRC was 20 µM, and the final concentration of DMSO was 0.5%.
Compounds were dissolved in DMSO to obtain 10 mM stock solutions. Dose-response solutions were prepared with a top endpoint compound concentration of 3 mM, followed by three-fold serial dilutions in DMSO, totaling ten data points. […] Then, 2.5 µL of the NMT1 enzyme working solution was added to the 384-well assay plate, followed by incubation at 25 °C for 10 minutes. Subsequently, 5 µL of the CPM and myristoyl-CoA working solution was added, the plate was centrifuged at 1000 rpm for 1 minute, and then 2.5 µL of the HSPP60 SRC working solution was added to initiate the reaction. The reaction was incubated at 25 °C for 45 minutes.
The IC50 curve of the compounds was fitted using the software XLfit 5.5.0 according to the nonlinear regression equation.

Series [2] is described as follows: Body weight of MV-4-11 xenograft model mice (tolerability). It is filed as in vivo. To be noted: female BALB/c nude mice, PO QD 30 mg/kg; for Body weight: Figure 1. The source says: (§1) To evaluate the effect of the compounds of the present invention on tumor growth, an MV-4-11 human myelomonocytic leukemia xenograft mouse model was established. Female BALB/c nude mice were procured from Shanghai Jihui Laboratory Animal Care Co., Ltd. Upon arrival, the mice were 6-7 weeks old and weighed 18-22 g. They were housed in specific pathogen-free (SPF) individually ventilated cages (IVC) at a density of 2-6 mice per cage, with ad libitum access to standard diet and water. The housing environment was maintained at 20 - 26 °C (68 - 79 °F) with a relative humidity of 40-70%, under a 12-hour light/dark cycle (lights on from 05:00 to 17:00). The study commenced after a one-week acclimatization period.
(§2) Human myelomonocytic leukemia MV-4-11 cells (ATCC, CRL-9591) were maintained in suspension culture using IMDM medium (Gibco, 12440-053) supplemented with 10% heat-inactivated fetal bovine serum (FBS; Gibco, 10099-141C) at 37 °C in a 5% CO2 atmosphere. Cells were passaged 2-3 times per week. Upon reaching the exponential growth phase, cells were harvested, counted, and inoculated subcutaneously into the right dorsal flank of female nude mice. Each mouse received a 200 µL suspension containing 8 × 10^6 MV-4-11 cells (100 µL cell suspension + 100 µL Matrigel basement membrane matrix, Corning, 354234). Thirteen days post-inoculation, when subcutaneous tumor volumes reached 100 - 300 mm^3 , tumor-bearing mice with appropriate morphology and uniform size were selected. Using stratified randomization, mice were assigned to experimental groups (n = 5 per group). Oral administration (PO, once daily [QD]) was initiated on the day of grouping, with all compounds of the present invention dosed at 30 mg/kg. During the dosing period, tumor diameters were measured twice weekly using digital calipers, and body weights were recorded. In the posttreatment observation period, tumor diameters and body weights were measured once weekly. Tumor volume (V) was calculated using the formula: V = 0.5 *a * b^2 , where a represents the long diameter and b represents the short diameter of the tumor.
(§3) The anti-tumor efficacy of the compounds was evaluated using the tumor growth inhibition percentage (TGI%), calculated by the formula: TGI(%) = [1 - (TVi - TV0) / (TVVi - TVV0)] *100%, where TV0 and TVV0 represent the mean tumor volumes on day 0 for the treatment and control groups, respectively, and TVi and TVVi represent the mean tumor volumes on day i for the treatment and control groups, respectively. Data were plotted using GraphPad Prism software. Tumor volume and body weight data are expressed as mean ± SEM and plotted as a function of time.

For the next series, the system named is MV-4-11 tumors. Kind of series: In vivo anti-tumor efficacy in MV-4-11 xenograft mouse model. As to conditions: female BALB/c nude mice, PO QD 30 mg/kg, Figure 2.
From the text: as §1, §2, §3

The conditions of series [3]: mouse, in vivo, po, 10 mg/kg.
From the text: as §4, §5, §6, §7, §8
Where [4] appears, read: 6 nM NMT1 enzyme, 1.25 µM myristoyl-CoA, 20 µM HSPP60 SRC peptide, 45 minutes at 25 °C, read-out: NMT1 (IC50).

In the series on MV-4-11 cells, `CCc1nn(C)c(C)c1NS(=O)(=O)c1c(Cl)cc(-c2ccc3sc4c(c3c2)CNCC4)cc1Cl` [Compound 2] gave an IC50 of 5.43 nM. In addition, in series [1], the concentration at 1 h was 2890 ± 858 ng/mL, the concentration at 4 h was determined as 1960 ± 190 ng/mL and the concentration at 8 h is 915 ± 97 ng/mL. The IC50 on NMT1 enzyme (setting [4]) was determined as 3.09 nM. Besides, the Body weight entry in series [2] was “slight decrease in body weight during the early phase of dosing, which subsequently returned to normal”. Also, the “Tumor volume / growth of MV-4-11 tumors” value in the series with MV-4-11 tumors was “significantly inhibited the growth of MV-4-11 tumors and induced tumor regression”.
In the series with MV-4-11 cells, `Cc1c(NS(=O)(=O)c2c(Cl)cc(-c3ccc4sc5c(c4c3)CNCC5)cc2Cl)c(CC(C)C)nn1C` [Compound 3] came in with an IC50 of 15 nM. In series [1], the concentration at 1 h is 2407 ± 21 ng/mL, the concentration at 4 h worked out at 1980 ± 417 ng/mL and the concentration at 8 h was determined as 1140 ± 551 ng/mL. In addition, the IC50 on NMT1 enzyme (setting [4]) was 3.45 nM. Moreover, in series [2], the Body weight entry was “no weight loss throughout the study”. In addition, in the series with MV-4-11 tumors, the “Tumor volume / growth of MV-4-11 tumors” value was “significantly inhibited the growth of MV-4-11 tumors and induced tumor regression”.
For the molecule `Cc1c(NS(=O)(=O)c2c(Cl)cc(-c3ccc4sc5c(c4c3)CNCC5)cc2Cl)c(CC#N)nn1C` [Compound 13], the IC50 was 19.3 nM with MV-4-11 cells (Homo sapiens) and 3.21 nM at NMT1 enzyme. Moreover, in series [1] (ICR mice, oral single dose of 10 mg/kg in 0.5% CMC, 1 h post-dose, Mean ± SEM, n = 3), the “1 h Concentration” value amounted to 1893 ± 196 ng/mL. The “4 h Concentration” value in series [1] (ICR mice, oral single dose of 10 mg/kg in 0.5% CMC, 4 h post-dose, Mean ± SEM, n = 3) was 623 ± 109 ng/mL. The “8 h Concentration” value in series [1] (ICR mice, oral single dose of 10 mg/kg in 0.5% CMC, 8 h post-dose, Mean ± SEM, n = 3) is given as 334 ± 83 ng/mL. Further, the Body weight result in series [2] is listed as “no weight loss throughout the study”. In addition, in the series on MV-4-11 tumors, the “Tumor volume / growth of MV-4-11 tumors” value is “significantly inhibited the growth of MV-4-11 tumors and induced tumor regression”.
Molecule `Cc1c(NS(=O)(=O)c2c(Cl)cc(-c3ccc4sc5c(c4c3)CNCC5)cc2Cl)c(CC2CC2)nn1C` [Compound 21] gave an IC50 in the series on MV-4-11 cells (Homo sapiens) of 26.9 nM. Also, on NMT1 enzyme, the IC50 is 3.58 nM. Further, in series [3], the “1 h Concentration” value came out at 1900 ± 199 ng/mL, the “4 h Concentration” value is reported as 1114 ± 196 ng/mL and the “8 h Concentration” value is reported as 679 ± 220 ng/mL.
Turning to `Cc1c(NS(=O)(=O)c2c(Cl)cc(-c3ccc4oc5c(c4c3)CNCC5)cc2Cl)c(CC(C)C)nn1C` [Compound 45], the IC50 in the series on MV-4-11 cells came out at 43.7 nM. In series [1], the concentration at 1 h is 2970 ± 855 ng/mL, the concentration at 4 h came to 3260 ± 876 ng/mL and the concentration at 8 h was 1960 ± 467 ng/mL. In addition, on NMT1 enzyme (setting [4]), the IC50 turned out to be 5.38 nM. Moreover, the Body weight entry in series [2] is “slight weight loss in the later phase”. The molecule further registered a Weight loss in series [2] (later phase) of no more than 10%. Moreover, in the series on MV-4-11 tumors, the “Tumor volume / growth of MV-4-11 tumors” value is “significantly inhibited the growth of MV-4-11 tumors and induced tumor regression”.
`Cc1c(NS(=O)(=O)c2c(Cl)cc(N3CCc4sc5c(c4C3)CNCC5)cc2Cl)c(CC(F)(F)F)nn1C` [Compound B35] displayed an IC50 with MV-4-11 cells (Homo sapiens) of 7.48 nM. Further, 1.97 nM corresponded to half-maximal inhibition against NMT1 enzyme (IC50). For the same molecule, in series [3], the “1 h Concentration” value is recorded as 2267 ± 1084 ng/mL, the “4 h Concentration” value is reported as 1270 ± 384 ng/mL and the “8 h Concentration” value was 684 ± 239 ng/mL.
With `Cc1c(NS(=O)(=O)c2ccc(-c3ccc4oc5c(c4c3)CNCC5)cc2)c(CCF)nn1C` [Compound B53], the IC50 with MV-4-11 cells stood at 27.2 nM. In series [1], this molecule came in with a concentration at 1 h of 2480 ± 626 ng/mL, a concentration at 4 h of 1020 ± 361 ng/mL and a concentration at 8 h of 399 ± 264 ng/mL. The IC50 at NMT1 enzyme (setting [4]) worked out at 4.02 nM.
For `Cc1c(NS(=O)(=O)c2ccc(-c3ccc4sc5c(c4c3)CNCC5)cc2Cl)c(CC(F)F)nn1C` [Compound B59], in that order: 5.3 nM, 1870 ± 389 ng/mL, 846 ± 698 ng/mL, 149 ± 114 ng/mL and 1.93 nM.
Regarding `Cc1c(NS(=O)(=O)c2ccc(-c3ccc4oc5c(c4c3)CNCC5)cc2)c(CC(F)F)nn1C` [Compound B64], in the series on MV-4-11 cells, it took 30.2 nM to reach half-maximal inhibition (IC50). In series [1], the concentration at 1 h was found to be 1660 ± 366 ng/mL, the concentration at 4 h was found to be 795 ± 127 ng/mL and the concentration at 8 h stood at 260 ± 63 ng/mL. For the same molecule, the IC50 on NMT1 enzyme (setting [4]) was 4.08 nM.
